# Patent US20240336602A1 (Katholieke Universiteit Leuven, priority 2020, published 2024)
# Target: T1, mouse TRPM3a2 (mTRPM3) ion channel (Mus musculus, UniProt J9SQF3)
# T1 construct: expressed in transfected cells; host or cells: flip-in HEK293
# Assay: TRPM3 ion channel driven Ca2+ uptake, Fluo-4 AM assay (PS-stimulated, overexpressing flip-in HEK293 cells)
# Type: cell-based
# Settings: PS (50 μM) stimulated, cpd 001-199
# In short: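 Flip-in HEK293 cells overexpressing mTRPM3α2, loaded with Fluo-4 AM, were added to wells with compound plus 50 μM pregnenolone sulfate in Ca2+-containing Krebs buffer and read immediately (ex 485/em 535 nm). Percent inhibition was scaled between PS-plus-vehicle and positive-control-inhibitor signals.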
# T1 sequence (J9SQF3 1-1709 isoform J9SQF3-12): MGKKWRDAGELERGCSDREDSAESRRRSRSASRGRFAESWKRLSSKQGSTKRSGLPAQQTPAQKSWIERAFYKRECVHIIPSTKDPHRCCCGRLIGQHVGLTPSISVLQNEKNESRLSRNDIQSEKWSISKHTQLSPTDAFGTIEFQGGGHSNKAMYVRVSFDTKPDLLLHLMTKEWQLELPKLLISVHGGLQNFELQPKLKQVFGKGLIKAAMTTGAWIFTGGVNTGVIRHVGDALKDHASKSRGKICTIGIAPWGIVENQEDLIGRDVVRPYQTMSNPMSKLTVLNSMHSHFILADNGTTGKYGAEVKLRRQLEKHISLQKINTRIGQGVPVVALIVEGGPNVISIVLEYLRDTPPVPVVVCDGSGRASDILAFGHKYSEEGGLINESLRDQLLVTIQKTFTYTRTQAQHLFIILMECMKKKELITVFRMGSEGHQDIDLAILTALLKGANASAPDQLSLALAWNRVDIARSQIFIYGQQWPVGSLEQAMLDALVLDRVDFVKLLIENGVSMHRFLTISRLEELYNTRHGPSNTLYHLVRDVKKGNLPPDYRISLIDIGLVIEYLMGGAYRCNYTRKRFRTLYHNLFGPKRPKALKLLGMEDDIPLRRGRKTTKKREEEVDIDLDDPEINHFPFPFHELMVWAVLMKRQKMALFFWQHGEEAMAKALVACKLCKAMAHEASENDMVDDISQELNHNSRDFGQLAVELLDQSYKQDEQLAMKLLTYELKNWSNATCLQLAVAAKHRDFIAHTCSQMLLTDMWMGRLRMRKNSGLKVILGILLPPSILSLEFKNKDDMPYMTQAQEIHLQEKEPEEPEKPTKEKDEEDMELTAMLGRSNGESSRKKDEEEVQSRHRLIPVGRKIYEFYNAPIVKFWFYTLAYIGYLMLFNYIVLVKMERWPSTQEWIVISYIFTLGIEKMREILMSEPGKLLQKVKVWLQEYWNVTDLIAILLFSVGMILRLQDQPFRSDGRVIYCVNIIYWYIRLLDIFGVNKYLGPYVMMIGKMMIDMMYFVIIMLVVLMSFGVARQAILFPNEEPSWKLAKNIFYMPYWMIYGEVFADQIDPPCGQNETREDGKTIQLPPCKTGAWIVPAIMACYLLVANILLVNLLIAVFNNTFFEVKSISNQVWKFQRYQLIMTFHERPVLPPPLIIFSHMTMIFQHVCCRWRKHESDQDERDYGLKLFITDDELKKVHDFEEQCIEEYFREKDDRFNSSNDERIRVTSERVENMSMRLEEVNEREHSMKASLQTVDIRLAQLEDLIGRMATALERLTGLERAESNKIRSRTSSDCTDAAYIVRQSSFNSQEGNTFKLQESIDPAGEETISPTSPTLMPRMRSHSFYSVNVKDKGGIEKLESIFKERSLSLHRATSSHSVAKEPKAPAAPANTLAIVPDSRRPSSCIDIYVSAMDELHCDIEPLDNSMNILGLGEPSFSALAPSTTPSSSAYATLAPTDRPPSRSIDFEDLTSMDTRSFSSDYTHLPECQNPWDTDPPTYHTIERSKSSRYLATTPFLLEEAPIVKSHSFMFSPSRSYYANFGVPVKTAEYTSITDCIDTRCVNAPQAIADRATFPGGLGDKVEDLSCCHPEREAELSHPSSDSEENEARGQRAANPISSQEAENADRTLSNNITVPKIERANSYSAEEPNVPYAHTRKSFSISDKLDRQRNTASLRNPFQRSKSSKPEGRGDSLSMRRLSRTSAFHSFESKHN
row,Structure (SMILES),IC50 [nM]
1,"Cc1oc2ccc(OCc3cnccn3)cc2c1C(=O)NC1CCNC1=O (stereo not drawn) [cpd 031, 2-methyl-N-(2-oxopyrrolidin-3-yl)-5-(pyrazin-2-ylmethoxy)benzofuran-3-carboxamide]",1000 to 20000
2,"Cc1oc2ccc(OCc3cncnc3)cc2c1C(=O)NC1CCNC1=O (stereo not drawn) [cpd 032, 2-methyl-N-(2-oxopyrrolidin-3-yl)-5-(pyrimidin-5-ylmethoxy)benzofuran-3-carboxamide]",1000 to 20000
3,"Cc1ccncc1COc1ccc2oc(C)c(C(=O)NC3CCOC3)c2c1 (stereo not drawn) [cpd 034, 2-methyl-5-((4-methylpyridin-3-yl)methoxy)-N-(tetrahydrofuran-3-yl)benzofuran-3-carboxamide]",1000 to 20000
4,"Cc1ccncc1COc1ccc2oc(C)c(C(=O)NC3CCNC3=O)c2c1 (stereo not drawn) [cpd 037, 2-methyl-5-((4-methylpyridin-3-yl)methoxy)-N-(2-oxopyrrolidin-3-yl)benzofuran-3-carboxamide]",1000 to 20000
5,"Cc1oc2ccc(OCc3ccccn3)cc2c1C(=O)NC1CCN(C)CC1 [cpd 039, 2-methyl-N-(1-methylpiperidin-4-yl)-5-(pyridin-2-ylmethoxy)benzofuran-3-carboxamide]",1000 to 20000
6,"Cc1ccc(COc2ccc3oc(C)c(C(=O)NC4CCNC4=O)c3c2)c(C)n1 (stereo not drawn) [cpd 044, 5-((2,6-dimethylpyridin-3-yl)methoxy)-2-methyl-N-(2-oxopyrrolidin-3-yl)benzofuran-3-carboxamide]",1000 to 20000
7,"Cc1oc2ccc(OC(C)c3ccncc3)cc2c1C(=O)NC1CCN(C)CC1 (stereo not drawn) [cpd 045, 2-methyl-N-(1-methylpiperidin-4-yl)-5-(1-(pyridin-4-yl)ethoxy)benzofuran-3-carboxamide]",1000 to 20000
8,"Cc1oc2ccc(OCc3nccs3)cc2c1C(=O)NC1CCNCC1(F)F (stereo not drawn) [cpd 050, N-(3,3-difluoropiperidin-4-yl)-2-methyl-5-(thiazol-2-ylmethoxy)benzofuran-3-carboxamide]",≤ 1000
9,"Cc1ccncc1COc1ccc2oc(C)c(C(=O)NC3(CO)CCOCC3)c2c1 [cpd 052, N-(4-(hydroxymethyl)tetrahydro-2H-pyran-4-yl)-2-methyl-5-((4-methylpyridin-3-yl)methoxy)-benzofuran-3-carboxamide]",1000 to 20000
10,"Cc1cccnc1COc1ccc2oc(C)c(C(=O)NC3CCNCC3(F)F)c2c1 (stereo not drawn) [cpd 053, N-(3,3-difluoropiperidin-4-yl)-2-methyl-5-((3-methylpyridin-2-yl)methoxy)benzofuran-3-carboxamide]",1000 to 20000
11,"Cc1oc2ccc(OCc3nccc4ccccc34)cc2c1C(=O)NC1CCN(C)CC1 [cpd 059, 5-(isoquinolin-1-ylmethoxy)-2-methyl-N-(1-methylpiperidin-4-yl)benzofuran-3-carboxamide]",1000 to 20000
12,"Cc1oc2ccc(OCc3cccc4cnccc34)cc2c1C(=O)NC1CCN(C)CC1 [cpd 060, 5-(isoquinolin-5-ylmethoxy)-2-methyl-N-(1-methylpiperidin-4-yl)benzofuran-3-carboxamide]",1000 to 20000
13,"COc1ncccc1COc1ccc2oc(C)c(C(=O)NC3CCNCC3(F)F)c2c1 (stereo not drawn) [cpd 062, N-(3,3-difluoropiperidin-4-yl)-5-((2-methoxypyridin-3-yl)methoxy)-2-methylbenzofuran-3-carboxamide]",≤ 1000
14,"Cc1oc2ccc(OCc3cccc(C(F)(F)F)n3)cc2c1C(=O)NC1CCNC1=O (stereo not drawn) [cpd 065, 2-methyl-N-(2-oxopyrrolidin-3-yl)-5-((6-(trifluoromethyl)pyridin-2-yl)methoxy)benzofuran-3-carboxamide]",1000 to 20000
15,"Cc1oc2ccc(OCc3ccc(C(F)(F)F)nc3)cc2c1C(=O)NC1CCNC1=O (stereo not drawn) [cpd 066, 2-methyl-N-(2-oxopyrrolidin-3-yl)-5-((6-(trifluoromethyl)pyridin-3-yl)methoxy)benzofuran-3-carboxamide]",1000 to 20000
16,"Cc1oc2ccc(OCc3ccc(C(F)(F)F)o3)cc2c1C(=O)NC1CCN(C)CC1 [cpd 069, 2-methyl-N-(1-methylpiperidin-4-yl)-5-((5-(trifluoromethyl)furan-2-yl)methoxy)benzofuran-3-carboxamide]",1000 to 20000
17,"Cc1oc2ccc(OCc3cccnc3C(F)(F)F)cc2c1C(=O)NC1CCNCC1(F)F (stereo not drawn) [cpd 074, N-(3,3-difluoropiperidin-4-yl)-2-methyl-5-((2-(trifluoromethyl)pyridin-3-yl)methoxy)benzofuran-3-carboxamide]",≤ 1000
18,"Cc1oc2ccc(OCc3ncccc3C(F)(F)F)cc2c1C(=O)NC1CCNCC1(F)F (stereo not drawn) [cpd 076, N-(3,3-difluoropiperidin-4-yl)-2-methyl-5-((3-(trifluoromethyl)pyridin-2-yl)methoxy)benzofuran-3-carboxamide]",1000 to 20000

# The remaining lines, values ahead:
row,IC50 [nM],Structure (SMILES)
1,1000 to 20000,"Cc1cncc(COc2ccc3oc(C)c(C(=O)N[C@H]4CCN(C(=O)OC(C)(C)C)C4)c3c2)c1 [cpd 073, tert-butyl (S)-3-(2-methyl-5-((5-methylpyridin-3-yl)methoxy)benzofuran-3-carboxamido)pyrrolidine-1-carboxylate]"
2,1000 to 20000,"Cc1oc2ccc(OCc3cccc(N(C)C)n3)cc2c1C(=O)NC1CCN(C(=O)OC(C)(C)C)CC1(F)F (stereo not drawn) [cpd 078, tert-butyl 4-(5-((6-(dimethylamino)pyridin-2-yl)methoxy)-2-methylbenzofuran-3-carboxamido)-3,3-difluoropiperidine-1-carboxylate]"
3,1000 to 20000,"CCOC(=O)c1c(C)oc2ccc(OCC3CCN(C(=O)OC(C)(C)C)C3)cc12 (stereo not drawn) [cpd 079, tert-butyl 3-(((3-(ethoxycarbonyl)-2-methylbenzofuran-5-yl)oxy)methyl)pyrrolidine-1-carboxylate]"
4,1000 to 20000,"Cc1oc2ccc(OCc3nccs3)cc2c1C(=O)NC1CCN(C(=O)OC(C)(C)C)CC1(F)F (stereo not drawn) [cpd 087, tert-butyl 3,3-difluoro-4-(2-methyl-5-(thiazol-2-ylmethoxy)benzofuran-3-carboxamido)piperidine-1-carboxylate]"
5,1000 to 20000,"Cc1cccnc1COc1ccc2oc(C)c(C(=O)NC3CCN(C(=O)OC(C)(C)C)CC3(F)F)c2c1 (stereo not drawn) [cpd 088, tert-butyl 3,3-difluoro-4-(2-methyl-5-((3-methylpyridin-2-yl)methoxy)benzofuran-3-carbox-amido)piperidine-1-carboxylate]"
6,1000 to 20000,"COc1ncccc1COc1ccc2oc(C)c(C(=O)NC3CCN(C(=O)OC(C)(C)C)CC3(F)F)c2c1 (stereo not drawn) [cpd 089, tert-butyl 3,3-difluoro-4-(5-((2-methoxypyridin-3-yl)methoxy)-2-methylbenzofuran-3-carbox-amido)piperidine-1-carboxylate]"
7,1000 to 20000,"Cc1ncsc1COc1ccc2oc(C)c(C(=O)NC3CCN(C(=O)OC(C)(C)C)CC3(F)F)c2c1 (stereo not drawn) [cpd 090, tert-butyl 3,3-difluoro-4-(2-methyl-5-((4-methylthiazol-5-yl)methoxy)benzofuran-3-carbox-amido)piperidine-1-carboxylate]"
8,1000 to 20000,"COc1cccc(COc2ccc3oc(C)c(C(=O)NC4CCN(C(=O)OC(C)(C)C)CC4(F)F)c3c2)n1 (stereo not drawn) [cpd 091, tert-butyl 3,3-difluoro-4-(5-((6-methoxypyridin-2-yl)methoxy)-2-methylbenzofuran-3-carbox-amido)piperidine-1-carboxylate]"
9,1000 to 20000,"Cc1oc2ccc(OCc3cccnc3Cl)cc2c1C(=O)NC1CCN(C(=O)OC(C)(C)C)CC1(F)F (stereo not drawn) [cpd 092, tert-butyl 4-(5-((2-chloropyridin-3-yl)methoxy)-2-methylbenzofuran-3-carboxamido)-3,3-difluoro-piperidine-1-carboxylate]"
